Measured values taken from patent US5523314A, “Compounds useful as hypoglycemic agents and for treating Alzheimer's disease” (priority 1994, dated 1996).
Read-outs that look alike come from different tables or passages of the source.

Tests used:
blood glucose level [1] = experiment: Hypoglycemic activity in obese diabetic mice (Table 1); format: in vivo, male viable yellow obese-diabetic mice; details: for response vs control in vivo at 50 mg/kg / response vs control in vivo at 10 mg/kg / response vs control in vivo at 25 mg/kg: Mus musculus, ip, intraperitoneal
Outline: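 Male viable yellow obese-diabetic mice, six per group, dosed intraperitoneally once with compound in saline containing 2% Emulphor. Blood glucose measured by glucose oxidase before dosing and at 2 and 4 h. Values are the 2 h and 4 h glucose as % of pre-dose level.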

β-amyloid protein = β-amyloid protein production inhibition in 293 751 SWE and CHO 751 SWE cells, ELISA (Table 7); format: cell-based; details: normalized for cytotoxicity; for inhibition at 10 µg/mL (stock): Compound Stock Concentration 10.0 μg/ml; for inhibition at 0.31 µg/mL (stock): Compound Stock Concentration 0.31 μg/ml; for inhibition at 0.62 µg/mL (stock): Compound Stock Concentration 0.62 μg/ml; for inhibition at 1.25 µg/mL (stock): Compound Stock Concentration 1.25 μg/ml; for inhibition at 2.5 µg/mL (stock): Compound Stock Concentration 2.5 μg/ml; for inhibition at 5 µg/mL (stock): Compound Stock Concentration 5.0 μg/ml
Method: Two cell lines (human kidney cell line 293 and Chinese hamster ovary cell line CHO) were stably transfected with the gene for APP751 containing the double mutation Lys-651-Met-652 to Asn-651-Leu-652 (APP-751 numbering) commonly called the Swedish mutation using the method described in Citron et al., Nature 360:672-674 (1992). The transfected cell lines were designated as 293 751 SWE and CHO 751 SWE, and were plated in Corning 96 well plates at 2.5×10^4 or 1×10^4 cells per well respectively in Dulbecco's minimal essential media (DMEM) plus 10% fetal bovine serum. […] These compound stocks were prepared by dissolving a sufficient quantity of the particular compound to be tested in DMSO such that various concentrations were obtained. After this pretreatment period, the conditioned media was removed and replaced with fresh conditioned media and the cells were incubated for an additional two hours.
After treatment, plates were centrifuged in a Beckman GPR at 1200 rpm for five minutes at room temperature to pellet cellular debris from the conditioned media. From each well, 100 μL of conditioned media were transferred into an ELISA plate precoated with antibody 266 [Seubert et al., Nature, 359:325-327 (1992)] and stored at 4° C. overnight prior to the completion of the ELISA assay the next day.
Cytotoxic effects of the compounds were measured by a modification of the method of Hansen et al., J. Immun. Meth. 119:203-210 (1989). To the cells remaining in the tissue culture plate, was added 25 μL of a 3-(4,5-dimethylthiazol-2-yl)-2,5-diphenyltetrazolium bromide (MTT) stock solution (5 mg/mL) to a final concentration of 1 mg/mL. Cells were incubated at 37° C. for one hour, and cellular activity was stopped by the addition of an equal volume of MTT lysis buffer (20% w/v sodium dodecylsulfate in 50% DMF, pH 4.7). Complete extraction was achieved by overnight shaking at room temperature. The difference in the OD562nm and the OD650nm was measured in a Molecular Devices UVmax microplate reader as an indicator of the cellular viability.
The results of the β-amyloid protein ELISA were fit to a standard curve and expressed as ng/mL β-amyloid protein peptide. In order to normalize for cytotoxicity, these β-amyloid protein results were divided by the cytotoxicity results and expressed as a percentage of the results from a drug-free control.

Human liver cathepsin D = molecular target: T1, Human liver cathepsin D (Homo sapiens, UniProt P07339); experiment: Cathepsin D inhibition, fluorometric assay (Tables 5 and 6); format: biochemical; details: for inhibition at 8.3 µg/mL (stock): Compound Stock Concentration 8.3 μg/ml; for inhibition at 10 µg/mL (stock): Compound Stock Concentration 10.0 μg/ml; for inhibition at 4.15 µg/mL (stock): Compound Stock Concentration 4.15 μg/ml
T1 construct: purchased Athens Research and Technology, Athens, Ga; host or cells: human liver
T1 sequence (P07339 169-412 limits assumed): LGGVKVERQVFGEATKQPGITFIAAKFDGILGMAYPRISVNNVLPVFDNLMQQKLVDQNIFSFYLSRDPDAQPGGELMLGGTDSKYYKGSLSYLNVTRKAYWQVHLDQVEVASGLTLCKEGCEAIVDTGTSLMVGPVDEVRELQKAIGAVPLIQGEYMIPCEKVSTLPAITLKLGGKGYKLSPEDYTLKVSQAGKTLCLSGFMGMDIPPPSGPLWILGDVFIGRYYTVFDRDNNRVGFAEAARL
T1 sequence (P07339 65-161 limits assumed): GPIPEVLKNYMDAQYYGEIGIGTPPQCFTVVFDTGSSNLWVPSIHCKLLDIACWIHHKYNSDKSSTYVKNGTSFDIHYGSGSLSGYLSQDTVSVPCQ
Outline: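 Human liver cathepsin D at 500 ng/mL in 200 mM NaOAc pH 4.5, 150 mM NaCl, incubated 30 minutes at 37° C. Reaction stopped with microsomal leucine aminopeptidase (pH 8.0), which over two hours at 37° C releases AMC from cleavage products for fluorometric reading; aminopeptidase inhibition checked with Leu-pNA.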

blood glucose level [2] = experiment: Hypoglycemic activity in normal fed rats (Table 2); format: in vivo, male Sprague Dawley rats; details: Rattus norvegicus, 200 mg/kg, oral
Method: The procedure used in this test system is described below.
(§1) The desired dose level of each test formulation was administered to four rats by oral […] at the beginning of the experiment. Blood glucose levels were determined immediately before the first dose and at 3 and 5 hours thereafter by an enzymatic procedure employing glucose oxidase and peroxidase coupled with a chromogenic oxygen acceptor. A mean was taken of the 4 values obtained before the first dose and at the 3 and 5 hour intervals.

[3] = test system: plasma glucose concentration; experiment: Long-term hypoglycemic activity, compound in diet, A^vy /a mice (Table 4); format: in vivo, viable yellow mouse; details: 0.1% in diet, Male A^vy /a (Harlan)
Method: (§2) Finally, the long-term hypoglycemic activity of the compounds of the present invention was tested in yet another in vivo test system. This long-term test system entailed incorporating test compound into the test animal's diet at various concentrations (control animal's diet contained no test compound). Such diet was then fed to the test or control animals for either 14 or 21 days. Each test or control animal was then bled from the tail (200-400 μl sample of blood) at 0 (before diet started), 7, 14 and, if appropriate, 21 and 28 days after diet administration was started. Plasma samples were then obtained from each blood sample collected and the glucose concentration of such plasma samples was determined enzymatically.
(§3) Columns 4-8 provide the plasma glucose concentration at days 0, 7, 14 and, if appropriate, 21 and 28, respectively, for the animals tested. Glucose lowering was not associated with depressed diet consumption.

blood glucose level [4] = experiment: Hypoglycemic activity in obese diabetic Zucker rats (Table 3); format: in vivo, obese diabetic Zucker rat (Zucker Diabetic Fatty Rat); details: 167 mg/kg, oral
Method: as §1, with “Male Sprague Dawley rats (Charles River Laboratories) weighing 175-200 g were used in this test system. […] The” for “The”
The procedure used in this test system is the same as that described for the normal fed rat test system, above. The format of Table 3 is the same as that used in Table 2.

[5] = test system: plasma glucose concentration; experiment: Long-term hypoglycemic activity, compound in diet, ZDF rats (Table 4); format: in vivo, 8 week old male Zucker Diabetic Fatty rat; details: 0.1% in diet
Method: as §2, §3

[6] = 2 h, 2 hrs, read-out: Percent of Initial Blood Glucose Level After 2 hrs.
[7] = 4 h, 4 hrs, read-out: Percent of Initial Blood Glucose Level After 4 hrs.
[8] = 3 hrs, read-out: Percent of Initial Blood Glucose Level After 3 hrs.
[9] = 5 hrs, read-out: Percent of Initial Blood Glucose Level After 5 hrs.

inhibition at 8.3 µg/mL (stock) (Human liver cathepsin D) [%]	inhibition at 10 µg/mL (stock) (Human liver cathepsin D) [%]	SMILES	response vs control in vivo at 50 mg/kg (blood glucose level [1]; [6]) [%]	response vs control in vivo at 50 mg/kg (blood glucose level [1]; [7]) [%]	inhibition at 10 µg/mL (stock) (β-amyloid protein) [%]	IC50 (Human liver cathepsin D) [µM]	response vs control in vivo at 200 mg/kg (blood glucose level [2]; [8]) [%]	response vs control in vivo at 200 mg/kg (blood glucose level [2]; [9]) [%]	inhibition at 4.15 µg/mL (stock) (Human liver cathepsin D) [%]	Plasma Glucose Concentration ([5]; day 0 (before diet started)) [mg/dL]	Plasma Glucose Concentration ([5]; day 7) [mg/dL]	Plasma Glucose Concentration ([5]; day 14) [mg/dL]	also measured
100	76	O=C1NC(=S)SC1=Cc1ccc(Oc2ccccc2)cc1 [Example 5, 5-[(4-phenoxyphenyl)methylene]-2-thioxo-4-thiazolidinone]	79 ± 4	71 ± 3	47	3.6	–	–	–	–	–	–	–
–	–	CCOc1ccc(C=C2SC(=S)NC2=O)cc1OCC [Example 38, 5-[(3,4-diethoxyphenyl)methylene]-2-thioxo-4-thiazolidinone]	–	–	–	–	90	74	–	–	–	–	response vs control in vivo at 10 mg/kg (blood glucose level [1]; [6]): 72 ± 4%; response vs control in vivo at 25 mg/kg (blood glucose level [1]; [6]): 69 ± 9%; response vs control in vivo at 10 mg/kg (blood glucose level [1]; [7]): 71 ± 6%; response vs control in vivo at 25 mg/kg (blood glucose level [1]; [7]): 65 ± 7%; Plasma Glucose Concentration ([3]; day 0 (before diet started)): 340 mg/dL; Plasma Glucose Concentration ([3]; day 7): 351 mg/dL; Plasma Glucose Concentration ([3]; day 14): 328 mg/dL; Plasma Glucose Concentration ([3]; day 21): 303 mg/dL; Plasma Glucose Concentration ([3]; day 28): 331 mg/dL
–	87.5	O=C1NC(=S)SC1=Cc1ccc(-c2ccccc2)cc1 [Example 42, 5-[[(1,1'-biphenyl)-4-yl]methylene]-2-thioxo-4-thiazolidinone]	87 ± 8	70 ± 8	51	1.7	–	–	78	–	–	–	inhibition at 0.31 µg/mL (stock) (β-amyloid protein): 8%; inhibition at 0.62 µg/mL (stock) (β-amyloid protein): 11%; inhibition at 1.25 µg/mL (stock) (β-amyloid protein): 14%; inhibition at 2.5 µg/mL (stock) (β-amyloid protein): 16%; inhibition at 5 µg/mL (stock) (β-amyloid protein): 35%
–	–	CCCCCOc1ccc(C=C2SC(=S)NC2=O)cc1 [Example 47, 5-[(4-pentoxyphenyl)methylene]-2-thioxo-4-thiazolidinone]	99 ± 14	76 ± 8	–	5.2	82	73	60.5	–	–	–	ability to lower blood glucose levels in mammals (blood glucose level [1]; compared to structurally similar compounds known in the art, in words): surprising ability to lower blood glucose levels in mammals; Percent of Initial Blood Glucose Level After 3 hrs. (blood glucose level [4]; 3 hrs): 74%; Percent of Initial Blood Glucose Level After 5 hrs. (blood glucose level [4]; 5 hrs): 66%
–	–	CCCCCOc1ccc(CC2SC(=S)NC2=O)cc1OC (stereo not drawn) [Example 64, 5-[(3-methoxy-4-pentoxyphenyl)methyl]-2-thioxo-4-thiazolidinone]	–	–	–	–	91	89	–	339	187	182	–
–	–	CCCCCOc1c(OC)cc(C=C2SC(=S)NC2=O)cc1OC [Example 70, 5-[(3,5-dimethoxy-4-pentoxyphenyl)methylene]-2-thioxo-4-thiazolidinone]	–	–	38	5.4	–	–	66	300	190	195	–
94	76	CC(C)(C)c1cc(C=C2SC(=S)NC2=O)cc(CSc2ccccc2)c1O [Example 71]	–	–	65	–	–	–	–	311	237	232	IC50 (Human liver cathepsin D; 50% inhibition of cathepsin D): 2.1 µM
–	87	O=C1NC(=S)SC1=Cc1cccc(Oc2ccccc2)c1 [Example 77, 5-[(3-phenoxyphenyl)methylene]-2-thioxo-4-thiazolidinone]	–	–	25	3.7	–	–	64	–	–	–	–

SMILES	inhibition at 8.3 µg/mL (stock) (Human liver cathepsin D) [%]	inhibition at 10 µg/mL (stock) (Human liver cathepsin D) [%]	response vs control in vivo at 50 mg/kg (blood glucose level [1]; [6]) [%]	response vs control in vivo at 50 mg/kg (blood glucose level [1]; [7]) [%]	inhibition at 10 µg/mL (stock) (β-amyloid protein) [%]	IC50 (Human liver cathepsin D) [µM]	response vs control in vivo at 200 mg/kg (blood glucose level [2]; [8]) [%]	response vs control in vivo at 200 mg/kg (blood glucose level [2]; [9]) [%]	inhibition at 4.15 µg/mL (stock) (Human liver cathepsin D) [%]	Plasma Glucose Concentration ([5]; day 0 (before diet started)) [mg/dL]	Plasma Glucose Concentration ([5]; day 7) [mg/dL]	Plasma Glucose Concentration ([5]; day 14) [mg/dL]	also measured
CCCCCCCOc1ccc(C=C2SC(=S)NC2=O)cc1OC [Example 31, 5-[(3-methoxy-4-heptoxyphenyl)methylene]-2-thioxo-4-thiazolidinone]	–	88.5	76 ± 7	76 ± 5	57	1.9	95	92	69.5	–	–	–	inhibition at 0.31 µg/mL (stock) (β-amyloid protein): 0%; inhibition at 0.62 µg/mL (stock) (β-amyloid protein): 7%; inhibition at 1.25 µg/mL (stock) (β-amyloid protein): 15%; inhibition at 2.5 µg/mL (stock) (β-amyloid protein): 28%; inhibition at 5 µg/mL (stock) (β-amyloid protein): 37%
CCCCCCCOc1ccc(C=C2SC(=S)N(N(C)C)C2=O)cc1OC [Example 81, 5-[(3-methoxy-4-heptoxyphenyl)methylene]-2-thioxo-3-dimethylamino-4-thiazolidinone]	21	–	–	–	100	319	–	–	–	–	–	–	–
